# Results from patent US6525001B1, “Substituted pyrimidine and pyridine herbicides” (Mid-American Commercialization Corporation, priority 1997, dated 2003).
# Legend:
# Type in all cases: in vivo
# [1] = test system: lambsquarters (Chenopodium album); experiment: Test D; details: POSTEMERGENCE
# Procedure: Compounds evaluated in this test were formulated in a non-phytotoxic solvent mixture which included a surfactant and applied to plants that were in the 1- to 4-leaf stage (postemergence application). A mixture of sandy loam soil and greenhouse potting mix in a 60:40 ratio was used for the postemergence test.
# Plantings of these crops and weed species were adjusted to produce plants of appropriate size for the postemergence test. All plant species were grown using normal greenhouse practices. Crop and weed species include alfalfa (Medicago sativa), annual bluegrass (Poa annua), blackgrass (Alopecurus myosuroides), black nightshade (Solanum nigra), chickweed (Stellaria media), common poppy (Papaver rhoeas), deadnettle (Lamium amplexicaule), downy brome (Bromus tectorum), field violet (Viola arvensis), galium 2 (Galium aparine), green foxtail (Setaria viridis), Italian ryegrass (Lolium multiflorum), jointed goatgrass (Aegilops cylindrica), kochia (Kochia scoparia), lambsquarters (Chenopodium album), lentil (Lens culinaris), littleseed canarygrass (Phalaris minor), pea (Pisum sativum), potato (Solanum tuberosum), rape (Brassica napus), redroot pigweed (Amaranthus retroflexus), Russian thistle (Salsola kali), scentless chamomile (Matricaria inodora), sorghum (Sorghum vulgare), spring barley (Hordeum vulgare), sugar beet (Beta vulgaris), sunflower (Helianthus annuus), ivyleaf speedwell (Veronica hederaefolia), spring wheat (Triticum aestivum), winter wheat (Triticum aestivum), wild buckwheat (Polygonum convolvulus), wild mustard (Sinapis arvensis), wild oat (Avena fatua), windgrass (Apera spica-venti) and winter barley (Hordeum vulgare).
# Treated plants and untreated controls were maintained in a greenhouse for approximately 21 to 28 days, after which all treated plants were compared to untreated controls and visually evaluated. Plant response ratings, summarized in Table D, are based upon a 0 to 100 scale where 0 is no effect and 100 is complete control. A dash response (−) means no test result.
# [2] = test system: spring barley (Hordeum vulgare); experiment: Test D; design: key: 0 is no effect; details: PREEMERGENCE
# [3] = test system: kochia (Kochia scoparia); experiment: Test D; design: key: 0 is no effect; 100 is complete control; details: PREEMERGENCE
# [4] = test system: black nightshade (Solanum nigra); experiment: Test D; design: key: 0 is no effect; 100 is complete control; details: PREEMERGENCE
# [5] = test system: chickweed (Stellaria media); experiment: Test D; details: PREEMERGENCE
# [6] = test system: annual bluegrass (Poa annua); experiment: Test D; design: key: 0 is no effect; 100 is complete control; details: PREEMERGENCE
# [7] = test system: Spanishneedles (Bidens bipinnata); experiment: Test E pre-/postemergence/post directed; design: key: 0 is no effect; 100 is complete control; details: PREEMERGENCE
# Method in brief: (§1)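 Injury was scored visually on a 0 to 100 scale (100 = complete control) 13 to 21 days after treatment of greenhouse-grown plants. Test chemicals, in a surfactant-containing non-phytotoxic solvent, were sprayed onto soil within a day of planting, onto plants at the two to four leaf stage, or directed at the base of the plants.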
# [8] = test system: pitted morningglory (Ipomoea lacunosa); experiment: Test E pre-/postemergence/post directed; design: key: 0 is no effect; 100 is complete control; details: PREEMERGENCE
# Method in brief: as §1
# [9] = test system: alexandergrass (Brachiaria plantaginea); experiment: Test E pre-/postemergence/post directed; design: key: 0 is no effect; 100 is complete control; details: PREEMERGENCE, Rate 250 g/ha
# Method in brief: as §1
Compound,"Plant response rating, Spring Barley ([2]; Rate 62 g/ha)","Plant response rating, Kochia ([3]; Rate 62 g/ha)","Plant response rating, Blk nightshade ([4]; Rate 62 g/ha)","Plant response rating, Chickweed ([5]; Rate 62 g/ha)","Plant response rating, Annual bluegras ([6]; Rate 62 g/ha)","Plant response rating, Spring Barley ([2]; Rate 31 g/ha)","Plant response rating, Kochia ([3]; Rate 31 g/ha)","Plant response rating, Blk nightshade ([4]; Rate 31 g/ha)","Plant response rating, Chickweed ([5]; Rate 31 g/ha)","Plant response rating, Annual bluegras ([6]; Rate 31 g/ha)",other results
CCc1cnc(-c2ccc(C(F)(F)F)cc2)nc1Cc1cccc(C(F)(F)F)c1 [Compound 22],0,10,10,40,20,,,,,,"Plant response rating, Lambsquarters ([1]; Rate 62 g/ha): 60; Plant response rating, Lambsquarters ([1]; Rate 125 g/ha): 60; Plant response rating, Spring Barley ([2]; Rate 125 g/ha): 10; Plant response rating, Spring Barley ([2]; Rate 250 g/ha): 2; Plant response rating, Kochia ([3]; Rate 125 g/ha): 65; Plant response rating, Kochia ([3]; Rate 250 g/ha): 60; Plant response rating, Blk nightshade ([4]; Rate 125 g/ha): 60; Plant response rating, Blk nightshade ([4]; Rate 250 g/ha): 50; Plant response rating, Chickweed ([5]; Rate 125 g/ha): 70; Plant response rating, Chickweed ([5]; Rate 250 g/ha): 30; Plant response rating, Annual bluegras ([6]; Rate 125 g/ha): 100; Plant response rating, Annual bluegras ([6]; Rate 250 g/ha): 50"
COc1cnc(-c2ccc(C(F)(F)F)cc2)nc1Cc1cccc(C(F)(F)F)c1 [Compound 23],,,,,,,,,,,"Plant response rating, Spanishneedles ([7]; Rate 125 g/ha): 100; Plant response rating, Spanishneedles ([7]; Rate 250 g/ha): 100"
Cc1cnc(-n2ccc(C(F)(F)F)n2)nc1Cc1cccc(OC(F)(F)F)c1 [Compound 42],,,,,,,,,,,"Plant response rating, Spanishneedles ([7]; Rate 125 g/ha): 100"
CCc1cnc(-n2ccc(C(F)(F)F)n2)nc1Cc1cccc(C(F)(F)F)c1 [Compound 46],5,60,50,70,90,30,60,50,70,60,
Cc1cnc(-n2cnc(C(F)(F)F)n2)nc1Cn1ccc(C(F)(F)F)n1 [Compound 51],80,80,95,90,100,70,85,100,80,85,
Cc1cnc(-n2ccc(C(F)(F)F)n2)nc1Cn1ccc(C(F)(F)F)n1 [Compound 52],60,80,40,80,100,50,50,10,30,50,"Plant response rating, Lambsquarters ([1]; Rate 16 g/ha): 70; Plant response rating, Lambsquarters ([1]; Rate 31 g/ha): 80; Plant response rating, Lambsquarters ([1]; Rate 62 g/ha): 80; Plant response rating, Lambsquarters ([1]; Rate 125 g/ha): 80; Plant response rating, Spring Barley ([2]; Rate 125 g/ha): 80; Plant response rating, Kochia ([3]; Rate 125 g/ha): 100; Plant response rating, Blk nightshade ([4]; Rate 125 g/ha): 90; Plant response rating, P. morninglory ([8]; Rate 64 g/ha): 100; Plant response rating, P. morninglory ([8]; Rate 125 g/ha): 100; Plant response rating, Chickweed ([5]; Rate 125 g/ha): 85; Plant response rating, Annual bluegras ([6]; Rate 125 g/ha): 100"
Cc1cnc(-c2ccc(C(F)(F)F)cc2)nc1Cn1ccc(C(F)(F)F)n1 [compound 9],,,,,,,,,,,"Plant response rating, Alexandergrass [9]: 100; Plant response rating, P. morninglory ([8]; Rate 250 g/ha): 100"
